Experimental data: publication PMC6595003, “Insights into real-time chemical processes in a calcium sensor protein-directed dynamic library” (Nature Communications, 2019)
“And” between values parts separate entries of the source, which are not always exact repeats. Equal entries are not always repeated.

How the values were obtained:
[1] = Fly locomotor activity assay (DAM2 beam breaks); type: in vivo, Drosophila
Experimental: (§1) Fig. 9 In vivo effects of compound 3b. Flies with motoneuron overexpression of the human aβ42arc (arctic mutation) (D42Gal4 > aβ42arc) or mock expression (D42Gal4 > LacZ) were fed with 3b (100 μM) or same volume of vehicle DMSO. a Twenty-day old adult abdominal motoneurons were analyzed and synapse number (nc82-positive spots) of the same motoneuron in different flies (16–19) were determined using Imaris, over the confocal 1 µm stacks. Data are plotted in graphs, where each grey triangle (aβ42arc flies fed with vehicle) and green triangle (aβ42arc flies fed with 3b) or each grey circle (control flies fed with vehicle) and green circle (control flies fed with 3b) represents one value. Horizontal line represents mean ± SEM. Data are analyzed statistically with unpaired two-tailored Student’s t test; ***P < 0.001. b Locomotor activity of individual 15 days old flies was recorded for 4 days in Drosophila Activity Monitors (DAM2, Trikinetics)[36], the total number of beam breaks per hour during two consecutive days was analyzed (the activity of the first two days is considered the habituation period and is discarded). Mean ± SEM of three independent experiments with 5–12 flies per condition each, were plotted and analyzed statistically with paired two-tailed Student’s t-test, *P < 0.05. Source data are provided as a Source Data file, ns non significant
(§2) To measure the physiological impact of this synaptic recovery, we evaluated fly locomotor activity. As described previously, overexpression of human aβ42arc peptide leads to severe locomotor dysfunction starting at day 15–20 post-eclosion[35].
(§3) Fifteen-day-old males were placed individually in locomotor activity monitor tubes (DAM2, TriKinetics Inc.) The DAM2 system automatically counts the number of beam breaks for flies walking in a horizontal tube over a specific period of time. This setup allowed for characterization of the locomotor and behavior rhythms of Drosophila. The tubes contained fly food with 100 µM compound 3b or same volume of DMSO. Flies were raised at 25 °C in 12-h light/12-h dark. In the first 2 days flies get habituated and the next 2 days the locomotor activity was quantified.

[2] = system: Drosophila model of Alzheimer's disease (motoneuron overexpression of human aβ42arc); test: Fly locomotor activity assay (DAM2 beam breaks); type: in vivo
Experimental: as §1, §2, §3

dNCS-1 = target: T1, dNCS-1 (Drosophila melanogaster, UniProt Q9VWX8); test: Protein-directed DCL, HPLC-MS relative peak area with and without dNCS-1; settings: for RPA, Blank DCL / RPA, Templated DCL: as fraction of total area; for RPA, Templated DCL: with dNCS-1; for RPA (%) with protein (templated DCL): relative peak area in presence of dNCS-1; for RPA (%) without protein (blank DCL): relative peak area, sum of all peak areas set to 100%; for RPA (%), Blank DCL: sheet Supplementary Figure 10; for RPA (%), Templated DCL: sheet Supplementary Figure 10, with dNCS-1
T1 construct: made in house; host or cells: E. coli
T1 sequence (Q9VWX8 1-187): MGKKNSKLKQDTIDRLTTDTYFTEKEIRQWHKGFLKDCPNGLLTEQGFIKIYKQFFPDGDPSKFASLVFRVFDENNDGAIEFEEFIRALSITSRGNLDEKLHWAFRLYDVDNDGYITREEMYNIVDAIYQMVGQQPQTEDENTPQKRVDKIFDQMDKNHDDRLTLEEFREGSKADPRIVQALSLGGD
Experimental: The reversibility of the DCL was evident, since an identical equilibrium distribution to that shown in Fig. 4a was obtained when two different starting points were employed. The observed degree of amplification was 3b > 3e ≥ 3d > 3a. The precise composition of the DCL (with and without dNCS-1), was assessed by measuring the relative peak area (RPA). Indeed, the normalized change of RPA was used to quantify the protein influence in the final outcome (Supplementary Figs. 9, 10 and Supplementary Tables 1, 2 and 3)[28]. […] Note that compounds 3a–3e can exist as E/Z isomers of the C = N bond. […].
Aldehyde 1 (1.2 μL, 50 mM, DMSO), the five acylhydrazides 2a–2e (5 × 3.6 μL, 50 mM, DMSO), p-anisidine (1 μL, 12 M, DMSO) and buffer 20 mM Tris, 0.5 M NaCl and 1 mM CaCl2, 1 mM DTT at pH 7.4 (750 μL) in 3.3 % DMSO. The mixture was stabilized in 5 h at 4 °C. HPLC analysis was performed.
Aldehyde 1 (1.2 μL, 50 mM, DMSO), the five acylhydrazides 2a–2e (5 × 3.6 μL, 50 mM, DMSO), p-anisidine (1 μL, 12 mM, DMSO) and dNCS-1 in buffer 20 mM Tris, 0.5 M NaCl and 1 mM CaCl2, 1 mM DTT at pH 7.4 (66.7 μM, 750 μL, 1 eq.). The experiment is in 3.3% DMSO. The mixture was stabilized for 5 h at 4 °C. Then, dNCS-1 was removed by ultrafiltration using an Amicon Ultra filter (0.5–10 KDa). HPLC analysis was performed and the traces were compared with the blank composition.
Supplementary Figure 9. Relative Peak Area of the DCL with and without dNCS1. Aldehyde
1 (1.2 µL, 50 mM), 2a-e (3.6 µL, 50 mM), catalyst (1 µL, 12 M), dNCS-1:1 [1:1], tris buffer (20
mM, pH 7.4), 1 mM CaCl2, 0.5 M NaCl, 1 mM DTT, T = 4 °C, 2% DM SO. Mean relative peak
area (RPA) of each acylhydrazone of the library in the absence (blank) and presence of dNCS-1.
Error bars indicate standard deviation (SD) over three experiments. The calculation is set by the
sum of all peak areas to 100% and assigning each peak its percentage. Source data are provided
R P A N o rm aliz ed V a riation
Supplementary Figure 10. RPA normalized of variation of DCL with and without dNCS1.
Aldehyde 1 (1.2 µL, 50 mM), 2a-e (3.6 µL, 50 mM), catalyst (1 µL, 12 M), dNCS-1:1 [1:1], tris
buffer (20 mM, pH 7.4), 1 mM CaCl2, 0.5 M NaCl, 1 mM DTT, T = 4 °C, 2% DM SO. Error
bars indicate SD over three experiments. Source data are provided as a Source Data file.

[3] = 100 μM in food, one value per fly

RPA, Blank DCL (dNCS-1)	RPA, Templated DCL (dNCS-1)	RPA (%) with protein (templated DCL) (dNCS-1)	RPA (%) without protein (blank DCL) (dNCS-1)	RPA (%), Blank DCL (dNCS-1) [%]	RPA (%), Templated DCL (dNCS-1) [%]	Compound	beam breaks per hour of individual flies, control + 3b, Experiment 1 [1, 3]	beam breaks per hour of individual flies, control + 3b, Experiment 2 [1, 3]	beam breaks per hour of individual flies, control + 3b, Experiment 3 [1, 3]	locomotor activity of control flies ([1]; fed 100 μM, vs DMSO)	beam breaks per hour of individual flies, aβ42arc + 3b, Experiment 1 [2, 3]	beam breaks per hour of individual flies, aβ42arc + 3b, Experiment 2 [2, 3]	beam breaks per hour of individual flies, aβ42arc + 3b, Experiment 3 [2, 3]	locomotor activity of aβ42arc flies ([2]; fed 100 μM, 15 days old flies, vs DMSO)
0.1921	0.2944	29.4% and 29.4401%	19.2% and 19.208%	19.2	29.4	O=C(Cc1c[nH]c2ccccc12)NN=Cc1ccc([N+](=O)[O-])c(O)c1 (mixture of isomers) [3b]	102 and 219 and 449 and 504 and 422 and 192 and 564	281 and 38 and 295 and 200 and 178 and 147	81 and 263 and 78 and 204 and 169	does not reveal a significant difference	327 and 264 and 198 and 235 and 195 and 320 and 256 and 104 and 272 and 274 and 106 and 220	295 and 321 and 87 and 159 and 125 and 199 and 157 and 279 and 287 and 274	140 and 89 and 136 and 171 and 263 and 178 and 216 and 151 and 91 and 146 and 160	locomotor deficit was recovered
0.2727	0.1875	18.8% and 18.7508%	27.3% and 27.2702%	27.3	18.8	O=C(N/N=C/c1ccc([N+](=O)[O-])c(O)c1)c1ccco1 [3a]								
0.1114	0.0839	8.4% and 8.39%	11.1% and 11.1444%	11.1	8.39	O=C(NN=Cc1ccc([N+](=O)[O-])c(O)c1)C(O)c1ccccc1 (mixture of isomers) [3d]								
